Assay results: patent US8703438B2, “Ligand binding stabilization method for drug target identification” (The Regents of the University of California, priority 2008, dated 2014)

Experiments:
Tif1 A64Q point mutant = Tif1 A64Q point mutant (Saccharomyces cerevisiae, UniProt P10081, A64Q); assay: DARTS target mutation analysis; assay type: binding, yeast; details: FIG. 4C
Source text: This enrichment was confirmed by western blotting using the TAP-tagged (Ghaemmaghami et al. (2003) Nature 425: 737-741) eIF4A yeast strain (FIG. 10). […] While the alanine is conserved throughout fungi and animals, plants have a glutamine at this position and the bulkier side chain is hypothesized to protect plant eIF4A from resveratrol inhibition by minimizing self binding.

TAP-tagged Tif1 (eIF4A) = target: T1, TAP-tagged Tif1 (eIF4A) (Saccharomyces cerevisiae, UniProt P10081); assay: DARTS western blot with TAP-tagged eIF4A yeast strain; assay type: binding; details: FIG. 10
T1 construct: endogenous in cells; host or cells: TAP-tagged eIF4A yeast strain (Ghaemmaghami et al. 2003 collection)
T1 sequence (P10081 1-395): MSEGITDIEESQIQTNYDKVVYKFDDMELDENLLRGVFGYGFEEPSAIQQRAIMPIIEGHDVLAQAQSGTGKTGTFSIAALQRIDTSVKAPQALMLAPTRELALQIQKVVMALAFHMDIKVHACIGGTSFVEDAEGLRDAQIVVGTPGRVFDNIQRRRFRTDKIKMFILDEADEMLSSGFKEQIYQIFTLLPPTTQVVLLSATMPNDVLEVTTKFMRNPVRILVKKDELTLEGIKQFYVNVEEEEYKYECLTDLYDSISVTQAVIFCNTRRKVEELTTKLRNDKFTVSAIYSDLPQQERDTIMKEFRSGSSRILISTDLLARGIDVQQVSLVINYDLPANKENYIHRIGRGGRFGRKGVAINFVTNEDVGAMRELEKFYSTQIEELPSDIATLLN
Source text: FIG. 4A: Chemical structure of resveratrol. FIG. 4B: Yeast cell lysates and human HeLa cell lysates were each treated with resveratrol in vitro followed by thermolysin digestion and silver staining. Protected bands of similar size were detected. FIG. 4C: Resveratrol protects TAP-tagged eIF4A, but not an unrelated Htb2, protein from proteolysis. Arrow: protein protected from subtilisin proteolysis (H. sapiens (SEQ ID NO:1), M. musculus (SEQ ID NO:2), X. laevis (SEQ ID NO:3), D. melanogaster (SEQ ID NO:4), C. elegans (SEQ ID NO:5), S. purpuratus (SEQ ID NO:6), C. reinhardtii (SEQ ID NO:7), A. thaliana (SEQ ID NO:8), H. andersenii (SEQ ID NO:9), S. cerevisiae (SEQ ID NO:10)). FIG. 4D: Resveratrol inhibits eIF4A-dependent translation in HEK 293 cells as assayed by bicistronic translation reporters. […] FIG. 4E: eIF4A is required for longevity in resveratrol-treated animals. Resveratrol (50 μM) lengthens the lifespan of wild-type N2 worms fed control (gfp) RNAi (green), but not worms fed eIF4A (inf-1) RNAi (red) or daf-16 RNAi (blue). gfp(RNAi), mVeh=19 (n=74), mRSV=20 (n=78), P=0.0006***; inf-1(RNAi), mVeh=26 (n=76), mRSV=24 (n=79), P=0.4687; daf-16(RNAi), mVeh=17 (n=78), mRSV=17 (n=76), P=0.3305. m, mean lifespan (days of adulthood); n, number of animals tested.
Arrow: protein protected from proteolysis. […]

[1] = tested on: proteins of S. cerevisiae BY4742 cell lysates; assay: DARTS with yeast cell lysates incubated in vitro with resveratrol, mass spectrometry of protected bands; assay type: binding; details: 1 mM resveratrol
Method: (§1) For DARTS using yeast cell lysates incubated in vitro with resveratrol (FIG. 4B), S. cerevisiae BY4742 cells were used.
(§2) Gel bands were cut out and prepared for mass spec analysis with trypsin digestion as described in SI. Peptides were analyzed by LC/MS/MS on a Thermo LTQ-Orbitrap mass spectrometer with an Eksigent LC pump. For quantitative comparison of protein and peptide abundances, MS spectra were analyzed using the differential workflow of Rosetta Elucidator (Rosetta Inpharmatics) (54). Annotation was performed using PeptideTeller and ProteinTeller (see SI).
(§3) Proteins were initially identified by searching the spectra against the human International Protein Index database (version 3.46) and the S. cerevisiae Swissprot database (May 2008) using the SEQUEST algorithm (Eng et al. (1994) J Am Soc Mass Spectrom 5: 976-989) integrated into the Bioworks software package. Each peptide met the following criteria: XCorr ≧2 (+1), ≧3 (+2), ≧4 (+3), ≧5 (+4), and DeltaCN>0.1. For quantitative comparison of protein and peptide abundances, MS spectra were analyzed using the differential workflow of the Rosetta Elucidator software system (Rosetta Inpharmatics) (Neubert et al. (2008) J Proteome Res 7: 2270-2279). Annotation was performed using PeptideTeller and ProteinTeller with a minimum probability of 0.99 and predicted error of 0.0. Protein ratio data were generated with a P-value cutoff of 0.01 for all proteins with a peptide number >1. Intensity scaling was performed against the mean of feature signals, with 10% of outliers removed from the baseline dataset. Similar results were obtained in analysis without intensity scaling (FIG. 9A).
(§4) For the DARTS experiment using yeast cell lysates incubated in vitro with resveratrol, BY4742 cells were suspended in yeast extraction buffer (Grant et al. (1999) Meth. Mol Biol 119: 311-317) [(40 mM HEPES/KOH pH 7.5, 350 mM NaCl, 0.5 mM DTT, 10% glycerol, 0.1% Tween-20) supplemented with Roche complete protease inhibitor cocktail (Roche Diagnostics, Indianapolis, Ind.)]. Cell pellets were broken with glass beads for 2×40 s at 4° C. in a FastPrep-24 (MP Biomedicals, Solon, Ohio). Whole cell lysates were collected after centrifugation (1500 rpm, 10 min). Lysates were incubated with ethanol control or 1 mM resveratrol for 30 min at room temperature. Samples were then divided into two aliquots, which underwent proteolysis with thermolysin or mock proteolysis.

[2] = target: T2, proteins of S. cerevisiae BY4742 cell lysates (Saccharomyces cerevisiae, UniProt P10081); assay: as above; assay type: binding; details: 1 mM resveratrol, Upper band
T2 construct: endogenous in cells; host or cells: S. cerevisiae BY4742
Method: as §1, §2, §3, §4

Sequence of Tif1 A64Q point mutant (P10081 whole entry A64Q): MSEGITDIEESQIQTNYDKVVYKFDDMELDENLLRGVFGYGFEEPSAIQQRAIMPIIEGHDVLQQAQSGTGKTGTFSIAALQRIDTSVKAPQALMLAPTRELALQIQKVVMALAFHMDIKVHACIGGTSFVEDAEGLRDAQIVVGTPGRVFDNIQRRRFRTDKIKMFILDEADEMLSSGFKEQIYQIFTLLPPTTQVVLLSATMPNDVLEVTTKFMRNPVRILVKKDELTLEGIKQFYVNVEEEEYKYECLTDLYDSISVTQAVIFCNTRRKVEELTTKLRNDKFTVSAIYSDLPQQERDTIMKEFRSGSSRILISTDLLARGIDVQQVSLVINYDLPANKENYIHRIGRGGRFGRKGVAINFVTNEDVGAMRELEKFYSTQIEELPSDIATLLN

With `Oc1ccc(C=Cc2cc(O)cc(O)c2)cc1` [resveratrol] the “effect of Tif1 A64Q point mutation on resveratrol protection” value (Tif1 A64Q point mutant) was “confers resistance to resveratrol”, the “protection of TAP-tagged Tif1 from proteolysis” value (TAP-tagged Tif1 (eIF4A)) was “protects the TAP-tagged Tif1” and the “Fold Change, 40S ribosomal protein S12” value ([1]; Lower band) was 2.07. The “Fold Change, 40S ribosomal protein S15” value ([1]; Lower band) was 3.677, the “Fold Change, 40S ribosomal protein S16” value ([1]; Lower band) was 2.906 and the “Fold Change, 40S ribosomal protein S18” value ([1]; Lower band) was 2.412. For the same molecule, the “Fold Change, 40S ribosomal protein S19” value ([1]; Lower band) was 1.965, the “Fold Change, 40S ribosomal protein S24” value ([1]; Lower band) was 1.481 and the “Fold Change, 40S ribosomal protein S26-B” value ([1]; Lower band) was 2.429. For the same molecule, the “Fold Change, 60S ribosomal protein L14-A” value ([1]; Lower band) was 1.614, the “Fold Change, 60S ribosomal protein L25” value ([1]; Lower band) was 3.564 and the “Fold Change, 60S ribosomal protein L26-A” value ([1]; Lower band) was 9.181. For the same molecule, the “Fold Change, 60S ribosomal protein L26-B” value ([1]; Lower band) was 11.107, the “Fold Change, 60S ribosomal protein L34” value ([1]; Lower band) was 2.383 and the “Fold Change, 60S ribosomal protein L35” value ([1]; Lower band) was 3.774. For the same molecule, the “Fold Change, Histone H2A” value ([1]; Lower band) was 3.002, the “Fold Change, Histone H2B” value ([1]; Lower band) was 2.229 and the “Fold Change, Ornithine aminotransferase” value ([1]; Lower band) was 2.531. For the same molecule, the “Fold Change, 40S ribosomal protein S23” value ([1]; Upper band) was 4.84, the “Fold Change, 40S ribosomal protein S26” value ([1]; Upper band) was 4.701 and the “Fold Change, 60S ribosomal protein L21-A” value ([1]; Upper band) was 2.777. For the same molecule, the “Fold Change, 60S ribosomal protein L24” value ([1]; Upper band) was 6.05, the “Fold Change, 60S ribosomal protein L25” value ([1]; Upper band) was 2.713 and the “Fold Change, 60S ribosomal protein L27-A” value ([1]; Upper band) was 2.554. The “Fold Change, 60S ribosomal protein L28” value ([1]; Upper band) was 1.804 and the “Fold Change, ATP-dependent RNA helicase eIF4A” value [2] was 1.961.
